The text below walks through data of ChEMBL document CHEMBL1152219, “Synthesis and use of sulfonamide-, sulfoxide-, or sulfone-containing aminoglycoside-CoA bisubstrates as mechanistic probes for aminoglycoside N-6'-acetyltransferase” (Bioorg Med Chem Lett, 2008).

pKi: −log10 of the molar value.

The nature of the test: Inhibition of aminoglycoside N-6'-acetyltransferase Ii.

Molecule `CC(C)(COP(=O)(O)OP(=O)(O)OC[C@H]1O[C@@H](n2cnc3c(N)ncnc32)[C@H](O)[C@@H]1OP(=O)(O)O)[C@@H](O)C(=O)NCCC(=O)NCCSCC(=O)NC[C@H]1O[C@H](O[C@H]2[C@H](O)[C@@H](O)[C@H](N)C[C@@H]2N)[C@H](N)[C@@H](O)[C@@H]1O` showed a pKi of 7.12.

In the case of `CC(C)(COP(=O)(O)OP(=O)(O)OC[C@H]1O[C@@H](n2cnc3c(N)ncnc32)[C@H](O)[C@@H]1OP(=O)(O)O)[C@@H](O)C(=O)NCCC(=O)NCCSCCC(=O)NC[C@H]1O[C@H](O[C@H]2[C@H](O)[C@@H](O)[C@H](N)C[C@@H]2N)[C@H](N)[C@@H](O)[C@@H]1O`, the pKi was 7.37.

In turn, `CC(C)(COP(=O)(O)OP(=O)(O)OC[C@H]1O[C@@H](n2cnc3c(N)ncnc32)[C@H](O)[C@@H]1OP(=O)(O)O)[C@@H](O)C(=O)NCCC(=O)NCCSCCS(=O)(=O)NC[C@H]1O[C@H](O[C@H]2[C@H](O)[C@@H](O)[C@H](N)C[C@@H]2N)[C@H](N)[C@@H](O)[C@@H]1O` gave a pKi of 5.80.

For the molecule `CC(C)(COP(=O)(O)OP(=O)(O)OC[C@H]1O[C@@H](n2cnc3c(N)ncnc32)[C@H](O)[C@@H]1OP(=O)(O)O)[C@@H](O)C(=O)NCCC(=O)NCC[S+]([O-])CC(=O)NC[C@H]1O[C@H](O[C@H]2[C@H](O)[C@@H](O)[C@H](N)C[C@@H]2N)[C@H](N)[C@@H](O)[C@@H]1O` (some centres not stated), the pKi is 7.22.

Molecule `CC(C)(COP(=O)(O)OP(=O)(O)OC[C@H]1O[C@@H](n2cnc3c(N)ncnc32)[C@H](O)[C@@H]1OP(=O)(O)O)[C@@H](O)C(=O)NCCC(=O)NCC[S+]([O-])CCC(=O)NC[C@H]1O[C@H](O[C@H]2[C@H](O)[C@@H](O)[C@H](N)C[C@@H]2N)[C@H](N)[C@@H](O)[C@@H]1O` (some centres not stated) had a pKi of 5.70.

`CC(C)(COP(=O)(O)OP(=O)(O)OC[C@H]1O[C@@H](n2cnc3c(N)ncnc32)[C@H](O)[C@@H]1OP(=O)(O)O)[C@@H](O)C(=O)NCCC(=O)NCCS(=O)(=O)CC(=O)NC[C@H]1O[C@H](O[C@H]2[C@H](O)[C@@H](O)[C@H](N)C[C@@H]2N)[C@H](N)[C@@H](O)[C@@H]1O` showed a negative logarithm of the Ki (pKi) of 6.57.

In turn, `CC(C)(COP(=O)(O)OP(=O)(O)OC[C@H]1O[C@@H](n2cnc3c(N)ncnc32)[C@H](O)[C@@H]1OP(=O)(O)O)[C@@H](O)C(=O)NCCC(=O)NCCS(=O)(=O)CCC(=O)NC[C@H]1O[C@H](O[C@H]2[C@H](O)[C@@H](O)[C@H](N)C[C@@H]2N)[C@H](N)[C@@H](O)[C@@H]1O` showed a pKi of 7.05.

One may read the pKi as the negative decadic logarithm of the Ki, by convention in mol/L.
